{"source": "patent US20190350197A1", "about": "“Composition comprising polyurethane microcapsules comprising cinmethylin” (BASF Agro B.V., priority 2016, published 2019)", "origin": "cited, not measured here", "conditions": "at 20° C."}
{"substance": "(±)-2-exo-(2-methylbenzyloxy)-1-methyl-4-isopropyl-7-oxabicyclo[2.2.1]heptane [Cinmethylin]", "values": [{"measurement": "solubility in water", "result": 0.063, "unit": "g-L^−1"}]}
